Experimental data: patent US20090253644A1, “Radiosensitizer” (TOYO SUISAN KAISHA, LTD., priority 2004, published 2009)
Values joined by “and” are separate entries in the source; they are usually repeats but may differ in a detail not shown here. Identical values can stand only once. “Also recorded” adds a separate entry of the source.

What was measured:
[1] = system: Human esophageal cancer cells (TE-8 cells); test: Animal experiment: TE-8 tumor-transplanted nude mice, tumor growth delay with X-ray irradiation; type: in vivo; details: Exp. Ex. 1-5: X-ray 8 Gy day 0 and day 4
Experimental: Five nude mice (eight weeks old) were randomly assigned to each of four groups. Human esophageal cancer cells (TE-8 cells) were transplanted to each mouse in the same manner as the above Experimental Example 1-1. When tumor volume reached 50 mm^3, α-SQMG C18:0 administration and irradiation treatment were performed. In a single use group of irradiation, each mouse was irradiated with X-ray at a dose of 8 Gy two times on day 0 and day 4. In a single use group of α-SQMG C18:0 administration, the sensitizer was intraperitoneally administered at a concentration of 1 mg/kg once a day at a total of 5 times from day 0 to day 4. In a combined use group, each mouse of the group was treated with both of irradiation and α-SQMG C18:0 administration. In the control group, neither irradiation nor α-SQMG C18:0 administration was performed. Thereafter, tumor volume was measured over a period of 51 days in the same manner as the above Experimental Example 1-1.
In addition, an enhancement ratio (ER) was obtained according to the method described in Experimental Example 1-2. […] For this reason, an enhancement ratio was calculated from the number of days until tumor volume reaches 400 mm^3. As a result, ER was 3.25, and it was shown that synergistic effect was extremely high.

[2] = system: human uterine cervical cancer cells (HeLa cells); test: Animal experiment: HeLa tumor-transplanted nude mice, tumor growth delay with X-ray irradiation; type: in vivo; details: Exp. Ex. 1-6: X-ray 8 Gy day 0 and day 4
Experimental: A human cancer-transplanted mouse was prepared in the same manner as in Experimental Example 1-5 except that human uterine cervical cancer cells (HeLa cells) were transplanted into a nude mouse. When tumor volume reached 100 mm^3, α-SQMG C18:0 administration and irradiation treatment were performed. In a single use group of irradiation, each mouse was irradiated with X-ray at a dose of 8 Gy two times on day 0 and day 4. In a single use group of α-SQMG C18:0 administration, α-SQMG C18:0 was intraperitoneally administered at a concentration of 1 mg/kg at a total of 10 times consisting of two courses of 5 times, that is, once a day from day 0 to day 4 and once a day from day 12 to day 16. In the combined use group, each mouse of the group was treated with both of irradiation and α-SQMG C18:0 administration. In the control group, neither irradiation nor α-SQMG C18:0 administration was performed. Thereafter, tumor volume was measured over a period of 35 days in the same manner as the above Experimental Example 1-1.

[3] = system: human lung cancer cells (A549 cells); test: Animal experiment: A549 tumor-transplanted nude mice, tumor growth delay with X-ray irradiation; type: in vivo; details: Exp. Ex. 1-7: X-ray 4 Gy day 0 and day 3, 1 mg/kg i.p. once a day day 0 to 4
Experimental: In the present Experimental Example, an experiment was performed in the same manner as in the aforementioned Experimental Examples except that human lung cancer cells (A549 cells) were transplanted into a nude mouse. Details of the experiment will be described below.
Four nude mice (eight weeks old) were randomly assigned to each of four groups. 2.0×10^6 human lung cancer cells (A549 cells) were suspended in PBS (−), and the suspension was transplanted subcutaneously into a right thigh of each mouse. After 45 days, when tumor volume became about 50 mm^3, each mouse was subjected to treatment according to each group. As a radiosensitizer, α-SQMG C18:0 was used as in the aforementioned Experimental Examples. In a single use group of irradiation, X-ray was irradiated two times (at the time of treatment initiation (day 0) and on day 3 after the treatment initiation) at a dose of 4 Gy. In a single use group of α-SQMG C18:0 administration, α-SQMG C18:0 was intraperitoneally administered at a concentration of 1 mg/kg once a day at a total of 5 times from the time of treatment initiation (day 0) to day 4. […] Thereafter, a short diameter and a long diameter of a tumor were measured with a micrometer caliper over a period of 20 days. Tumor volume was calculated according to the following equation, and the tumor growth delaying effect was compared. […]

[4] = system: Bovine aortic endothelial cells (BAEC); test: Colony assay on vascular endothelial cells with 60Co γ-ray irradiation; type: cell-based; parameters: key to actually measured SF value of combined use group / actually measured SF value of combined use: SF = colonies/seeded cells×(PE/100); PE = control colony formation rate; details: for SF (cell surviving fraction), administration alone: 24 hours, no irradiation
Experimental: Bovine aortic endothelial cells (BAEC) were appropriately seeded on a petri dish, and adhesion of cells was confirmed after 2 to 3 hours. In a group of α-SQMG C18:0 administration alone and a combined use group, the cells were treated with 10 μM of α-SQMG C18:0. After 24 hours, a medium was exchanged in all test groups, and 4 Gy of ^60Co γ-ray was irradiated in a group of irradiation alone and a combined use group. After the cells were cultured in a CO2 incubator at 37° C. for 10 to 12 days, formed colonies were fixed with formalin, and stained with a crystal violet staining solution. On each plate, the number of colonies consisting of about 50 or more cells was counted, and cell surviving fraction (SF) was obtained according to the following equation.
SF (cell surviving fraction)=number of colonies/number of seeded cells×(PE/100)
Herein, PE (plating efficiency) represents a colony formation rate (%) on a plate of a control.
An experiment was performed three times, and an average of them was calculated.
The same experiment as that of Experimental Example 2-1 was performed except that a radiation dose 6 Gy was irradiated in place of 4 Gy used in Experimental Example 2-1. […]

For `CCCCCCCCCCCCCCCCCC(=O)OCC(O)CO[C@H]1O[C@H](CS(=O)(=O)[O-])[C@@H](O)[C@H](O)[C@H]1O.[Na+]` (stereo partly drawn) [α-SQMG C18:0, 3-O-(6-deoxy-6-sulfo-α-D-glucopyranosyl)-1-O-stearoyl-glycerol sodium salt], the “enhancement ratio (ER)” value ([1]; 1 mg/kg i.p. day 0 to 4, calculated from days until tumor volume reaches 400 mm^3) was 3.25, the “anti-tumor effect (tumor volume), combined use with irradiation” value (“anti-tumor effect (tumor volume)” for short) ([1]; 1 mg/kg i.p. once a day day 0 to 4) was “anti-tumor effect far exceeding the anti-tumor effect attained by irradiation” and the “enhancement ratio (ER)” value ([2]; 1 mg/kg i.p. day 0 to 4 and day 12 to 16, tumor volume 500 mm^3) was 2.71. The “anti-tumor effect (tumor volume)” value ([2]; 1 mg/kg i.p. once a day day 0 to 4 and day 12 to 16) was “anti-tumor effect far exceeding the anti-tumor effect attained by irradiation”, the “enhancement ratio (ER)” value [3] was “cannot be calculated” and the “anti-tumor effect (tumor volume)” value ([3]; sodium salt, 1 mg/kg) was “anti-tumor effect exceeding the anti-tumor effect attained by irradiation alone; also recorded: increase in tumor volume is scarcely seen”. The “actually measured SF value of combined use” value ([4]; 5 μM + 2 Gy 60Co γ-ray) was 0.1370, the “theoretical additive point of combined use (SF)” value (shortened to “theoretical additive point”) ([4]; 5 μM + 2 Gy 60Co γ-ray) was 0.6012 and the “SF (cell surviving fraction), administration alone” value ([4]; 5 μM) was 1.0094. The “actually measured SF value of combined use” value ([4]; 10 μM + 2 Gy 60Co γ-ray) was 0.0644, the “theoretical additive point” value ([4]; 10 μM + 2 Gy 60Co γ-ray) was 0.5620 and the “actually measured SF value of combined use group” value ([4]; 10 μM + 4 Gy 60Co γ-ray) was 0.0640. The “theoretical additive point” value ([4]; 10 μM + 4 Gy 60Co γ-ray) was 0.0974, the “actually measured SF value of combined use group” value ([4]; 10 μM + 6 Gy 60Co γ-ray) was 0.0180 and the “theoretical additive point” value ([4]; 10 μM + 6 Gy 60Co γ-ray) was 0.0505. For the same compound, the “SF (cell surviving fraction), administration alone” value ([4]; 10 μM, sodium salt) was 0.616 and 0.9433, the “synergistic effect of combined use with radiation on suppression of proliferation of vascular endothelial cells” value ([4]; 10 μM, 4 Gy and/or 6 Gy) was “considerably great synergistic effect” and the “cell proliferation suppressing effect, treatment alone” value ([4]; Exp. Ex. 2-5: 0 to 25 μM, 0 Gy) was “cell proliferation suppressing effect is not obtained”. The “effect of irradiation on suppression of cell proliferation, combined use” value ([4]; Exp. Ex. 2-5: 0 to 25 μM, 2 to 8 Gy 60Co γ-ray) was “increased”.
